In patent US12102633B2, “Spirolactone compounds” (Quixgen, Inc., priority 2017, dated 2024):

Experiments:
human ACC2 = target: T1, human ACC2 (Homo sapiens, UniProt O00763); test: Human ACC enzymatic activity assay (ACC2); assay type: biochemical; conditions: purified human ACC2; read-out: EA-CoA hACC 2 IC50
T1 construct: purchased BPS Bioscience
Procedure: (§1) Human ACC enzymatic activity assays were performed by using purified human ACC1 and ACC2 proteins (BPS Bioscience). ACC1 and ACC2 proteins were diluted in 24.5 μL reaction buffer (50 mM HEPES pH 7.5, 10 mM MgCl2, 2.0 mM DTT, 4.0 mM ATP, 15 mM ^13C-NaHCO3, 0.75 mg/mL BSA, 0.5 mM sodium citrate), and final concentrations of ACC1 and ACC2 were 0.4 μg/mL and 0.48 μg/mL. For each reaction, 0.5 μL of serial diluted compounds were prepared in DMSO in duplicate or triplicate and mixed with the above 24.5 μL reaction mixtures with ACC proteins at 37° C. for 10 min. Meanwhile, 25 μL of reaction buffer plus acetyl-CoA (final concentration: 5 μM) was prepared freshly and added to the above 25 μL mixture to initiate the reaction. After incubation at 37° C. for 1-2 hours, 100 μl ice-cold 10% TCA with malonyl-^13C3-CoA (final concentration: 40 nM, Sigma-Aldrich) was added to terminate the reaction. For LC-MS/MS analysis, 300 μL quenching buffer (acetonitrile:methanol=1:1, 20 μM carbutamide as internal standard) was added to each tube and mixed well. Samples were then centrifuged at 14,000 rpm for 10 min (Eppendorf) and supernatants were loaded onto LC-MS/MS for quantitation of […] (Gao et al., Journal of chromatography B, Analytical technologies in the biomedical and life sciences 853, 303-313 (2007)).
(§2) Shimadzu LC system was used for sample analysis consisting of system controller (Shimadzu CBM-20A), autosampler (Shimadzu SIL-20A), pump A and B (Shimadzu LC-20AD), column oven (Shimadzu CTO-20A), and analytical column (Phenomenex Gemini 5u C18 11A, 100×2 mm). LC was running at 200 μL/min in the binary gradient mode with mobile phase A (5 mM Ammonium Acetate and 5 mM DMBA in water (1,3-Dimethylbutylamine)) and B (methanol). The samples were analyzed on an AB Sciex QTrap4000 LC-MS/MS triple quadrupole mass spectrometer (Applied Biosystems). Malonyl-CoA and malonyl-13C-CoA were monitored in positive ion mode following MRM transitions at 854.2/347.1 and 855.1/246.1, respectively. The product and internal standard were coeluted to the mass spectrometer in 3 s with 50% H2O, 25% MeCN, 25% acetone, and 5 mM ammonium acetate. Ion chromatograms were integrated using the Analyst 1.5.2 software. Peak area ratios were compared against a standard curve and final cellular concentration of malonyl-CoA or production rate of malonyl-13C-CoA was calculated as pmoles/mg protein per minute.

[1] = PK study in male C57 mouse for Examples 14 and 15; assay type: in vivo; conditions: for concentration at 0.5 h: 0.50 h
Procedure: Pharmacokinetic studies were carried out with male C57 mouse. Compounds (Example 14 and Example 15) were each formulated in 5% DMSO+10% Solutol HS 15+85% Saline, and dosed at 1 mpk for IV injection (5 mL/kg) and 10 mpk for oral gavage (10 mUkg). Plasma samples at various time points were quantitated with LC-MS. Data reported were average of three mice.
Tables 1 and 2 below show plasma concentrations (ng/mL) and PK parameters of Example 14 in male C57 mouse after 1 mpk IV injection and 10 mpk PO gavage, respectively. The plasma concentration (ng/mL) of the acid compound, Example 15, was also measured and reported below.
Tables 3 and 4 below show plasma concentrations (ng/mL) and PK parameters of Example 15 in male C57 mouse after 1 mpk IV injection and 10 mpk PO gavage, respectively.

human ACC1 = target: T2, human ACC1 (Homo sapiens, UniProt Q13085); test: Human ACC enzymatic activity assay (ACC1); assay type: biochemical; conditions: purified human ACC1; read-out: EA-CoA hACC 1 IC50
T2 construct: purchased BPS Bioscience
Procedure: as §1, §2

[2] = male, C57, mouse, plasma, iv, 1 mg/kg, Example 14 dosed 1 mpk IV, analyte = labelled compound
[3] = male, C57, mouse, plasma, iv, 1 mg/kg, Example 15 dosed 1 mpk IV
[4] = male, C57, mouse, plasma, po, 10 mg/kg, Example 14 dosed 10 mpk PO gavage, analyte = labelled compound
[5] = male, C57, mouse, plasma, po, 10 mg/kg, Example 15 dosed 10 mpk PO gavage
[6] = plasma, 1 mg/kg, Example 15 dosed 1 mpk IV

T1 sequence (O00763 whole entry): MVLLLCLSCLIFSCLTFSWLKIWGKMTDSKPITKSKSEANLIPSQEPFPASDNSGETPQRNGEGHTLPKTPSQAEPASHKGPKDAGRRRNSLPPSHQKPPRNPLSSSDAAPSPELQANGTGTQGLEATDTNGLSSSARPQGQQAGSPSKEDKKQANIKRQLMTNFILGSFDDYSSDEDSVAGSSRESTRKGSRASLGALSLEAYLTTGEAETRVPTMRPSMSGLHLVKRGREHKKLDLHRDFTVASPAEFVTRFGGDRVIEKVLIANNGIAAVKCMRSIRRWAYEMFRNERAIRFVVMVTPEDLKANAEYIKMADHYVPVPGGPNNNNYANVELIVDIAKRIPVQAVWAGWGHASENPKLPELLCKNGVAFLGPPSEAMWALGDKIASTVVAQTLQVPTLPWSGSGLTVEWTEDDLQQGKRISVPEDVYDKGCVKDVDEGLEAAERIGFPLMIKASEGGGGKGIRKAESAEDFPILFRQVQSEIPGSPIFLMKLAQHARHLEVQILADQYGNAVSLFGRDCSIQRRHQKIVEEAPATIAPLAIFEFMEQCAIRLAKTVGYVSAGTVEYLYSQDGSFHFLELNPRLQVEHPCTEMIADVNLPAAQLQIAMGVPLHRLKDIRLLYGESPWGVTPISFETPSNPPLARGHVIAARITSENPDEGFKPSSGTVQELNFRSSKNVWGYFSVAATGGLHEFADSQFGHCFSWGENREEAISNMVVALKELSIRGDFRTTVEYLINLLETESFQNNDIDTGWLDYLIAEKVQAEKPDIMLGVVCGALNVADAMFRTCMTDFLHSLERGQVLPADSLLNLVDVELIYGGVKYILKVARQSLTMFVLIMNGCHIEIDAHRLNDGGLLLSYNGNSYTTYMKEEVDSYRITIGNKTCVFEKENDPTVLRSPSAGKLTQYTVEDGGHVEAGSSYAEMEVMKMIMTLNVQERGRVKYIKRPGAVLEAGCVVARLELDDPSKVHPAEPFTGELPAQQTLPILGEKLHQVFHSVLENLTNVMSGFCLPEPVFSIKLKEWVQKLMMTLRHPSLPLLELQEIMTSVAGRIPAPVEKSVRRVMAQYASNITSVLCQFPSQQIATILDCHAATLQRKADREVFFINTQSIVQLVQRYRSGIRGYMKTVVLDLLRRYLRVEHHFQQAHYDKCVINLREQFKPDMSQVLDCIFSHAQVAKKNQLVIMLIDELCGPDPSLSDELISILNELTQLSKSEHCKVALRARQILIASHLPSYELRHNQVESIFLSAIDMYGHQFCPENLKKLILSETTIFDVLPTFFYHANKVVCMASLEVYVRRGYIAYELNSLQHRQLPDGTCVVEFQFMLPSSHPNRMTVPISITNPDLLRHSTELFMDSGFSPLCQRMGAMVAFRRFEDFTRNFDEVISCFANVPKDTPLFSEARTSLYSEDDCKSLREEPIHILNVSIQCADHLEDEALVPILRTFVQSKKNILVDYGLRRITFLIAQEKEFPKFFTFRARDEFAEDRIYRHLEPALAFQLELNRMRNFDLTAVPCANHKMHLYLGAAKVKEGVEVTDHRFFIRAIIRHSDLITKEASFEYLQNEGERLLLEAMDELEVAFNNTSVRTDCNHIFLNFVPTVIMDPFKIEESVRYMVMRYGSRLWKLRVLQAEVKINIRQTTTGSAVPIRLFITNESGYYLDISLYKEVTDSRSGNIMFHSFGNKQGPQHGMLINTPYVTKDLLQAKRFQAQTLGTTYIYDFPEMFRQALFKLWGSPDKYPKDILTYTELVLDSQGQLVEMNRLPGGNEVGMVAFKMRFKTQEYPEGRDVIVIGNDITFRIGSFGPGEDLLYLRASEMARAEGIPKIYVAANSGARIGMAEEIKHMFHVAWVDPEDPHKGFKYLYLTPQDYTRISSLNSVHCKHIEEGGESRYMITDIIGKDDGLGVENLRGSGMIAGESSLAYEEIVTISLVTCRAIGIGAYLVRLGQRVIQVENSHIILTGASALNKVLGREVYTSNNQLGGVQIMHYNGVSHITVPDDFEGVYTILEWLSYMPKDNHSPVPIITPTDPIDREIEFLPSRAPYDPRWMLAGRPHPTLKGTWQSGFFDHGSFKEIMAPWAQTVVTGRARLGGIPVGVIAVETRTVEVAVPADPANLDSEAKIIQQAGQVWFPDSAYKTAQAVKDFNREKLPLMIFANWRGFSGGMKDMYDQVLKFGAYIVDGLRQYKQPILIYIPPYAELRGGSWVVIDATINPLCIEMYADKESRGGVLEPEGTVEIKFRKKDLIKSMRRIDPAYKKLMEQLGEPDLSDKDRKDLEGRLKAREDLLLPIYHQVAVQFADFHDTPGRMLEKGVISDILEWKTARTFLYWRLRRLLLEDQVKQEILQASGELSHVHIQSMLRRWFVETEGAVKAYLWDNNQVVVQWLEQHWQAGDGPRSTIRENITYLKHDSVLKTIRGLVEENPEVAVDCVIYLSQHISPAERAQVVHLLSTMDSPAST

COc1cc(C(=O)N2CCC3(CC2)Cc2ccc(-c4cncc(C(=O)O)c4)cc2C(=O)O3)nc2c(OC)cccc12 [Example 15, 5-(1′-(4,8-dimethoxyquinoline-2-carbonyl)-1-oxospiro [isochroman-3,4′-piperidin]-7-yl)nicotinic acid]
IC50 (human ACC2): 0.033 µM | Plasma Concentration, Mean ([1]; Example 14 dosed 1 mpk IV, 24.00 h, analyte = labelled compound): BLQ | Plasma Concentration, Mean ([1]; Example 15 dosed 1 mpk IV, 4.00 h): BLQ | Plasma Concentration, Mean ([1]; Example 15 dosed 1 mpk IV, 8.00 h): BLQ | Plasma Concentration, Mean ([1]; Example 15 dosed 1 mpk IV, 24.00 h): BLQ | F ([1]; Example 15 dosed 10 mpk PO gavage): 1.7% | Plasma Concentration, Mean ([1]; Example 15 dosed 10 mpk PO gavage, 24.00 h): BLQ | concentration at 0.08 h [1, 2]: 122 ng/mL | concentration at 0.25 h [1, 2]: 161 ng/mL | concentration at 0.5 h [1, 2]: 107 ng/mL | concentration at 1 h [1, 2]: 55 ng/mL | concentration at 2 h [1, 2]: 16 ng/mL | concentration at 4 h ([1]; male, C57, mouse, plasma, iv, 1 mg/kg, Example 14 dosed 1 mpk IV, 4.00 h, analyte = labelled compound): 3.4 ng/mL | concentration at 8 h ([1]; male, C57, mouse, plasma, iv, 1 mg/kg, Example 14 dosed 1 mpk IV, 8.00 h, analyte = labelled compound): 1.5 ng/mL | MRT [1, 3]: 6.6 min | concentration at 0.08 h [1, 3]: 3010 ng/mL | concentration at 0.25 h [1, 3]: 414 ng/mL | concentration at 0.5 h [1, 3]: 95 ng/mL | concentration at 1 h [1, 3]: 28 ng/mL | concentration at 2 h [1, 3]: 6.6 ng/mL | concentration at 0.25 h [1, 4]: 152 ng/mL | concentration at 0.5 h [1, 4]: 168 ng/mL | concentration at 1 h [1, 4]: 146 ng/mL | concentration at 2 h [1, 4]: 84 ng/mL | concentration at 4 h ([1]; male, C57, mouse, plasma, po, 10 mg/kg, Example 14 dosed 10 mpk PO gavage, 4.00 h, analyte = labelled compound): 43 ng/mL | concentration at 8 h ([1]; male, C57, mouse, plasma, po, 10 mg/kg, Example 14 dosed 10 mpk PO gavage, 8.00 h, analyte = labelled compound): 23 ng/mL | concentration at 24 h ([1]; male, C57, mouse, plasma, po, 10 mg/kg, Example 14 dosed 10 mpk PO gavage, 24.00 h, analyte = labelled compound): 2.1 ng/mL | Cmax [1, 4]: 185 ng/mL | MRT [1, 4]: 186 min | Tmax [1, 4]: 34.8 min | Cmax [1, 5]: 164 ng/mL | MRT [1, 5]: 59.4 min | Tmax [1, 5]: 15 min | concentration at 0.25 h [1, 5]: 164 ng/mL | concentration at 0.5 h [1, 5]: 99 ng/mL | concentration at 1 h [1, 5]: 63 ng/mL | concentration at 2 h [1, 5]: 11 ng/mL | concentration at 4 h ([1]; male, C57, mouse, plasma, po, 10 mg/kg, Example 15 dosed 10 mpk PO gavage, 4.00 h): 3.2 ng/mL | concentration at 8 h ([1]; male, C57, mouse, plasma, po, 10 mg/kg, Example 15 dosed 10 mpk PO gavage, 8.00 h): 2 ng/mL | Vd [1, 6]: 0.49 L/kg | clearance [1, 6]: 23.3 mL/min/kg | half-life [1, 6]: 17.4 min | IC50 (human ACC1): 0.0275 µM
